Results from patent US12139520B2 (priority 2020, dated 2024).
Numbered stars: 1 amine (or outer) side, 2 acyl side, 3 side chain; on linkers, the order of the positions; unused ones are H or OH. Bridge positions count the residues as written; N and C are the ends. Square brackets hold non-standard residues; d marks the D form. Peptide text beside a SMILES is read from it. * marks the point of attachment. C20 diacid = O=C(O)CCCCCCCCCCCCCCCCCCC(=O)*; γGlu = O=C(O)[C@H](CCC(=O)[*:2])N[*:1]; Hyp = O=C(O)[C@@H]1C[C@@H](O)CN1

Target: T1, hAMY3 receptor (Homo sapiens, UniProt O60896+P30988)
T1 sequence (P30988 25-474): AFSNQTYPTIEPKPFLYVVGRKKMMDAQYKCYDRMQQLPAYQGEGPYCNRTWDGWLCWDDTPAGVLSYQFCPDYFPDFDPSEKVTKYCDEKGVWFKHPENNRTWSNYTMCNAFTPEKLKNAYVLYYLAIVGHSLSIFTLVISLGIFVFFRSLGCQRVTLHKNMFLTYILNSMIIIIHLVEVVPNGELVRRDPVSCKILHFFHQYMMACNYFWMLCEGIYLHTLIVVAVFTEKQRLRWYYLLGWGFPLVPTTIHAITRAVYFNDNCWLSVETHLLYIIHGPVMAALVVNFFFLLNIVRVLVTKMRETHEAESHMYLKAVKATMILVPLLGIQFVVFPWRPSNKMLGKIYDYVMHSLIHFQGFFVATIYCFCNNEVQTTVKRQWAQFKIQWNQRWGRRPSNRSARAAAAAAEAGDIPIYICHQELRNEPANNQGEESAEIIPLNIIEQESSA
T1 sequence (O60896 24-148 partner): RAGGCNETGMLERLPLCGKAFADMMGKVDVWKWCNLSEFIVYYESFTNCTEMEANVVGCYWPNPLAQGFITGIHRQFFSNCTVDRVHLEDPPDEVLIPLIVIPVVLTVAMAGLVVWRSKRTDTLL
Test: cAMP assay for in vitro receptor activation, hAMY3-R
Format: cell-based
Conditions: cAMP assay, hAMY3 receptor; read-out: hAMY3R EC50
How it was run: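 Accumulated cAMP was detected by time-resolved FRET one hour after reagent addition. Beforehand, hAMY3-R-overexpressing monoclonal cells (2000/well, DPBS, 0.05% casein, 0.5 mM IBMX) received graded doses of compound for 30 min at room temperature; human amylin served as positive control.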

Row | EC50 [nM] | SMILES
1 | 0.012 | CC[C@H](C)[C@H](NC(=O)[C@H](CCC(N)=O)NC(=O)[C@H](Cc1c[nH]cn1)NC(=O)[C@H](C)NC(=O)[C@H](CC(C)C)NC(=O)[C@H](CCCNC(=N)N)NC(=O)[C@H](CCC(N)=O)NC(=O)[C@@H](NC(=O)[C@@H](NC(=O)[C@@H]1CSSC[C@H](NC(=O)[C@H](CCCCN)NC(=O)CC[C@H](NC(=O)CCCCCCCCCCCCCCCCCCC(=O)O)C(=O)O)C(=O)N[C@@H](CC(N)=O)C(=O)N[C@@H]([C@@H](C)O)C(=O)N[C@@H](C)C(=O)N[C@@H]([C@@H](C)O)C(=O)N1)[C@@H](C)O)C(C)C)C(=O)N[C@@H](Cc1ccc(O)cc1)C(=O)N[C@@H](CCC(N)=O)C(=O)N[C@@H](Cc1ccccc1)C(=O)N[C@@H](CO)C(=O)N[C@@H](CC(=O)O)C(=O)N[C@@H](CCCCN)C(=O)N[C@@H](CC(=O)O)C(=O)N[C@@H](CCCCN)C(=O)N[C@@H](CC(=O)O)C(=O)N[C@@H](CC(N)=O)C(=O)N[C@H](C(=O)N[C@@H](C)C(=O)N1CCC[C@H]1C(=O)N1CCC[C@H]1C(=O)N[C@H](C(=O)N[C@@H](CC(N)=O)C(=O)N[C@H](C(=O)NCC(=O)N[C@@H](CO)C(=O)N[C@@H](CC(N)=O)C(=O)NCC(=O)N1C[C@H](O)C[C@H]1C(N)=O)C(C)C)[C@@H](C)O)C(C)C [compound 57] ({C20 diacid-γGlu}-KCNTATCTVQRLAHQIYQFSDKDKDNVAPPTNVGSNG[Hyp]-NH2; disulfide 2-7)
2 | 0.021 | CC[C@H](C)[C@H](NC(=O)[C@H](CCCCN)NC(=O)[C@@H](NC(=O)[C@H](CCCNC(=N)N)NC(=O)[C@@H]1CCCN1C(=O)[C@H](C)NC(=O)[C@@H](NC(=O)[C@H](CC(N)=O)NC(=O)[C@H](CC(=O)O)NC(=O)[C@H](CCCCN)NC(=O)[C@H](CC(=O)O)NC(=O)[C@H](CCCCN)NC(=O)[C@H](CC(=O)O)NC(=O)[C@@H](NC(=O)[C@H](Cc1ccccc1)NC(=O)[C@H](CCC(N)=O)NC(=O)[C@H](Cc1ccc(O)cc1)NC(=O)[C@@H](NC(=O)[C@H](CCC(N)=O)NC(=O)[C@H](Cc1c[nH]cn1)NC(=O)[C@H](C)NC(=O)[C@H](CC(C)C)NC(=O)[C@H](CCCNC(=N)N)NC(=O)[C@H](CCC(N)=O)NC(=O)[C@@H](NC(=O)[C@@H](NC(=O)[C@@H]1CSSC[C@H](NC(=O)CN)C(=O)N[C@@H](CCCNC(=N)N)C(=O)N[C@@H](Cc2ccccc2)C(=O)NCC(=O)N[C@@H]([C@@H](C)O)C(=O)N1)[C@@H](C)O)C(C)C)[C@@H](C)CC)[C@@H](C)O)C(C)C)[C@@H](C)O)C(=O)NCC(=O)N1CCC[C@H]1C(=O)N[C@@H](CCC(N)=O)C(=O)NCC(=O)N1C[C@H](O)C[C@H]1C(N)=O [compound 111] (H-GCRFGTCTVQRLAHQIYQFTDKDKDNVAPRTKIGPQG[Hyp]-NH2; disulfide 2-7; N-terminus assumed)
3 | 0.015 | CC[C@H](C)[C@H](NC(=O)[C@H](CCC(N)=O)NC(=O)[C@H](Cc1c[nH]cn1)NC(=O)[C@H](C)NC(=O)[C@H](CC(C)C)NC(=O)[C@H](CCCNC(=N)N)NC(=O)[C@H](CCC(N)=O)NC(=O)[C@@H](NC(=O)[C@@H](NC(=O)[C@@H]1CSSC[C@H](NC(=O)[C@H](CCCCN)NC(=O)CC[C@H](NC(=O)CCCCCCCCCCCCCCCCCCC(=O)O)C(=O)O)C(=O)N[C@@H](CC(N)=O)C(=O)N[C@@H]([C@@H](C)O)C(=O)N[C@@H](C)C(=O)N[C@@H]([C@@H](C)O)C(=O)N1)[C@@H](C)O)C(C)C)C(=O)N[C@@H](Cc1ccc(O)cc1)C(=O)N[C@@H](CCC(N)=O)C(=O)N[C@@H](Cc1ccccc1)C(=O)N[C@H](C(=O)N[C@@H](CC(N)=O)C(=O)N[C@@H](CCCCN)C(=O)N[C@@H](CC(=O)O)C(=O)N[C@@H](CCCCN)C(=O)N[C@@H](CC(=O)O)C(=O)N[C@@H](CC(N)=O)C(=O)N[C@H](C(=O)N[C@@H](C)C(=O)N1CCC[C@H]1C(=O)N1CCC[C@H]1C(=O)N[C@H](C(=O)N[C@@H](CC(N)=O)C(=O)N[C@H](C(=O)NCC(=O)N[C@@H](CO)C(=O)N[C@@H](CC(N)=O)C(=O)NCC(=O)N1C[C@H](O)C[C@H]1C(N)=O)C(C)C)[C@@H](C)O)C(C)C)[C@@H](C)O [compound 82] ({C20 diacid-γGlu}-KCNTATCTVQRLAHQIYQFTNKDKDNVAPPTNVGSNG[Hyp]-NH2; disulfide 2-7)
